Residues, ends and D or L forms follow the SMILES beside them. *: point of attachment. Cbz = O=C(OCc1ccccc1)*; CH2F = FC*
System: purified Taenia solium cysteine protease
Assay: Protease inactivator inhibition assay against cocktail, EC100 and Ki (Step VII)
Assay type: biochemical
Excerpt: Once the protease inactivators were synthesized in the organic laboratory, they were to be tested for the lowest efficacious concentrations at which they induced 100% inhibition of the target protease (EC100). The top percent cocktail that was employed in the final vehicle selection step of Step III was employed as the source of competition for the inhibitors. In this case, this was the 7.9% cocktail that was comprised of Z-FR-AFC, Z-FAR-AFC, Z-AP-AFC, Z-AAK-AFC, and Z-VLR-AFC. The final result would be a ranking of transition state candidate protease inactivators with a high ranking directly correlating to a low EC100 value. The following steps describe the assay: • Step A: Initial Screening. To set up the test control, each protease inactivator was first incubated with the 5% cocktail (which provided the final differentiation of vehicles in Step III). To begin with, the protease inactivator was incubated at a concentration of 3 X 10^-9M in 500 ul of assay buffer (0.2 M Citrate, pH 4.9, supplemented with 10mM L-cysteine). This concentration was determined by a series of inhibitor dilutions to be the best inhibitor concentration at which a differentiation in inhibitor potential could be noted. Next, a concentration equal to 4 X 10^-5M for each of the individual cocktail components, was added to the mix. The components were allowed to equilibrate for a period of 30 minutes. Finally, active purified enzyme was added to the tubes at a concentration which was always at least 50 times less than the concentration of the lowest concentration in the mix (so as to provide saturating conditions.) This concentration varied from purification to purification, and the amount that was added depended upon the yield and specific activity of the purified protease. Positive controls were set up similarly as described for test controls, except that solvent was added in substitution for the protease inactivator (in a volume equal to the […] volume addition). All of the protease inactivators could be dissolved in dimethylsulfoxide (DMSO), and therefore, this was the solvent of choice. Negative controls were set up by adding the protease inactivator and the cocktail substrates in a tube, without the protease. All potential non-proteolytic induced liberation of AFC was therefore controlled for in this tube. All controls were set up in triplicate, and experiments repeated a minimum of five times. The assays were incubated at 37°C, overnight. Percent inhibition was calculated as: %Inhibition = ((AFC positive for "SI"−AFC negative for "SI")−(AFC test−AFC negative for "SI"))/(AFC positive for "SI"−AFC negative for "SI") × 100 [formula] • Step B: Inhibitor Dilution Studies and formation of a ranked list of protease inactivators based upon EC100 values. […] Because of this, a dilution study was required in order to determine a viable ranking. Thus, the concentration of each of the protease inactivators was lowered with a dose response setup until the most efficacious concentration for 100% inhibition (EC100) could be determined. The inhibitors had to be diluted to nanomolar levels in order to establish a differentiable EC100 pattern. The final result of the assay was a ranked candidate list of protease inactivators. A lower EC100 was attributable to a higher ranking and vice-versa. • Step C: Determination of Inhibitor Ki and mode of inhibition, and re-ranking of EC100 list with inhibitor Ki. Ki of each of the top ranked protease inactivators, based upon low EC100 values, was assessed next for the top 5 EC100 inhibitors.
In order to determine Ki, all of the high Vmax cocktail substrates were employed for Ki determination (since Ki of the inhibitor for the enzyme is the same regardless of the substrate). To insure the highest accuracy, Ki was to be determined upon a minimum of at least three of the high Kcat substrates. Nonlinear fitting and the Dixon plot were both employed to determine Ki of the top ranked protease inactivators. […]

## CC(C)C[C@H](NC(=O)OCc1ccccc1)C(=O)N[C@@H](CC(C)C)C(=O)N[C@@H](Cc1ccc(O)cc1)C(=O)CF [Z-LLY-FMK, Z-Leu-Leu-Tyr-FMK] (Cbz-Leu-Leu-Tyr-CH2F)
Concentration not stated in Table 4
  % Inhibition of T. solium CP in vitro: 97%
Dilution study, nanomolar levels
  ranking by EC100: top inhibitors

Source: patent EP1379634B1 (THE UNIVERSITY OF GEORGIA RESEARCH FOUNDATION, INC., priority 2001, dated 2002)
